Measurements from patent US5686563A, “Biologically active peptides having n-terminal substitutions” (priority 1995, dated 1997).
Square brackets hold non-standard residues; d marks the D form. Ends that are not written are not given here. Peptide text beside a SMILES is read from it. * marks the point of attachment. hArg = N=C(N)NCCCC[C@H](N)C(=O)O; Octanoyl = CCCCCCCC(=O)*

What was measured:
Test in all cases: Anaerobic antimicrobial susceptibility test (MIC)
Type in all cases: cell-based
P. gingivalis = details: 37° C., 24-48 hours; for MIC P. gingivalis (strain) W50: strain W50, BHI broth; for MIC P. gingivalis (strain) 9-14K-1: strain 9-14K-1, BHI broth; for MIC P. gingivalis (strain) 381: strain 381, BHI broth; for MIC P. gingivalis (strain) A7A1-28: strain A7A1-28, BHI broth; for MIC P. gingivalis (strain) FAY-19M-1: strain FAY-19M-1, BHI broth
S. mutans = details: BHI broth, 37° C., 24-48 hours
A. viscosus = details: BHI broth, 37° C., 24-48 hours

Compound | MIC P. gingivalis (strain) W50 (P. gingivalis) [μl/ml] | MIC P. gingivalis (strain) 9-14K-1 (P. gingivalis) [μl/ml] | MIC P. gingivalis (strain) 381 (P. gingivalis) [μl/ml] | MIC P. gingivalis (strain) A7A1-28 (P. gingivalis) | MIC P. gingivalis (strain) FAY-19M-1 (P. gingivalis) [μl/ml] | MIC S. mutans (S. mutans) [μl/ml] | MIC A. viscos (A. viscosus) [μl/ml]
CCCCCCCC(=O)N[C@@H](CCCCN)C(=O)N[C@H](C(=O)N[C@@H](C)C(=O)N[C@@H](CCCCN)C(=O)N[C@@H](CCCCN)C(=O)N[C@H](C(=O)N[C@@H](C)C(=O)N[C@@H](CCCCN)C(=O)N[C@H](C(=O)N[C@@H](C)C(=O)N[C@@H](CCCCN)C(=O)N[C@@H](CCCCN)C(=O)N[C@H](C(=O)N[C@@H](C)C(=O)N[C@@H](CCCCN)C(=O)N[C@H](C(=O)N[C@@H](C)C(=O)N[C@@H](CCCCN)C(=O)N[C@@H](CCCCN)C(=O)N[C@H](C(=O)N[C@@H](C)C(=O)O)[C@@H](C)CC)[C@@H](C)CC)[C@@H](C)CC)[C@@H](C)CC)[C@@H](C)CC)[C@@H](C)CC [Oct-(SEQ ID NO: 86)-OH] (Octanoyl-KIAKKIAKIAKKIAKIAKKIA-OH) | 1 |  |  |  |  |  | 
CCCCCCCC(=O)N[C@@H](CCCCN)C(=O)N[C@H](C(=O)N[C@@H](C)C(=O)NCC(=O)N[C@@H](CCCCN)C(=O)N[C@H](C(=O)N[C@@H](C)C(=O)N[C@@H](CCCCN)C(=O)N[C@H](C(=O)N[C@@H](C)C(=O)NCC(=O)N[C@@H](CCCCN)C(=O)N[C@H](C(=O)N[C@@H](C)C(=O)N[C@@H](CCCCN)C(=O)N[C@H](C(=O)N[C@@H](C)C(=O)NCC(=O)N[C@@H](CCCCN)C(=O)N[C@H](C(=O)N[C@@H](C)C(=O)O)[C@@H](C)CC)[C@@H](C)CC)[C@@H](C)CC)[C@@H](C)CC)[C@@H](C)CC)[C@@H](C)CC [Oct-(SEQ ID NO: 27)-OH] (Octanoyl-KIAGKIAKIAGKIAKIAGKIA-OH) | 1 |  |  |  |  |  | 
KVALKALKKVALKALKVALKAL-NH2 [(SEQ ID NO: 152)-NH2] | 4 | 4 | 32 | 4,8 μl/ml | 8 | 16 | 16
CCCCCCCC(=O)N[C@@H](CCCCNC(=N)N)C(=O)N[C@H](C(=O)N[C@@H](C)C(=O)NCC(=O)N[C@@H](CCCCNC(=N)N)C(=O)N[C@H](C(=O)N[C@@H](C)C(=O)N[C@@H](CCCCNC(=N)N)C(=O)N[C@H](C(=O)N[C@@H](C)C(=O)NCC(=O)N[C@@H](CCCCNC(=N)N)C(=O)N[C@H](C(=O)N[C@@H](C)C(=O)N[C@@H](CCCCNC(=N)N)C(=O)N[C@H](C(=O)N[C@@H](C)C(=O)NCC(=O)N[C@@H](CCCCNC(=N)N)C(=O)N[C@H](C(=O)N[C@@H](C)C(N)=O)[C@@H](C)CC)[C@@H](C)CC)[C@@H](C)CC)[C@@H](C)CC)[C@@H](C)CC)[C@@H](C)CC [Oct-(SEQ ID NO: 66)-NH2] (Octanoyl-[hArg]IAG[hArg]IA[hArg]IAG[hArg]IA[hArg]IAG[hArg]IA-NH2) | 2 |  |  |  |  |  | 
KIAGKIAKIAGKIAKIAGKIA-NH2 [(SEQ ID NO: 27)-NH2] | 4 |  |  |  |  |  | 
KIAKKIAKIAKKIAKIAKKIA-NH2 [(SEQ ID NO: 86)-NH2] | 4 | 8 | 8 | 2 μl/ml |  | 4 | 16
CC[C@H](C)[C@H](NC(=O)[C@H](CCCCNC(=N)N)NC(=O)CNC(=O)[C@H](C)NC(=O)[C@@H](NC(=O)[C@H](CCCCNC(=N)N)NC(=O)[C@H](C)NC(=O)[C@@H](NC(=O)[C@H](CCCCNC(=N)N)NC(=O)CNC(=O)[C@H](C)NC(=O)[C@@H](NC(=O)[C@H](CCCCNC(=N)N)NC(=O)[C@H](C)NC(=O)[C@@H](NC(=O)[C@H](CCCCNC(=N)N)NC(=O)CNC(=O)[C@H](C)NC(=O)[C@@H](NC(=O)[C@@H](N)CCCCNC(=N)N)[C@@H](C)CC)[C@@H](C)CC)[C@@H](C)CC)[C@@H](C)CC)[C@@H](C)CC)C(=O)N[C@@H](C)C(N)=O [(SEQ ID NO: 66)-NH2] (H-[hArg]IAG[hArg]IA[hArg]IAG[hArg]IA[hArg]IAG[hArg]IA-NH2) | 4 |  |  |  |  |  | 
(SEQ ID NO: 86)-OH: (Lys Ile Ala Lys Lys Ile Ala)3 unsubstituted at the N-terminal, C-terminal OH (H-KIAKKIAKIAKKIAKIAKKIA-OH) | 4 | 16 | 16 | 4 μl/ml | 8 | 16 | 32
CCCCCCCC(=O)N[C@@H](CCCCN)C(=O)N[C@H](C(=O)N[C@@H](C)C(=O)NCC(=O)N[C@@H](CCCCN)C(=O)N[C@H](C(=O)N[C@@H](C)C(=O)N[C@@H](CCCCN)C(=O)N[C@H](C(=O)N[C@@H](C)C(=O)NCC(=O)N[C@@H](CCCCN)C(=O)N[C@H](C(=O)N[C@@H](C)C(=O)N[C@@H](CCCCN)C(=O)N[C@H](C(=O)N[C@@H](C)C(=O)NCC(=O)N[C@@H](CCCCN)C(=O)N[C@H](C(=O)N[C@@H](C)C(N)=O)[C@@H](C)CC)[C@@H](C)CC)[C@@H](C)CC)[C@@H](C)CC)[C@@H](C)CC)[C@@H](C)CC [Oct-(SEQ ID NO: 27)-NH2] (Octanoyl-KIAGKIAKIAGKIAKIAGKIA-NH2) | 16 |  |  |  |  |  | 
